From ChEMBL document CHEMBL1201862, “PubChem BioAssay data set” (2004)
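Method: 48-hour compound exposure of cells in 96-well plates, five concentrations, linear interpolation of endpoints. GI50 marks 50% less growth.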 Activity calls are given as the source filed them. No stated cut-off is given here; in the data, active = GI50 up to about 1.1 µM and inactive = higher.

Tests used:
Assay in all cases: NCI tumour cell line growth inhibition, 48 h
KM12 = system: KM12
M14 = system: M14
TK-10 = system: TK-10
SW-620 = system: SW-620
HOP-62 = system: HOP-62
MCF7 = system: MCF7
U-251 = system: U-251
UACC-257 = system: UACC-257
OVCAR-8 = system: OVCAR-8
SF-539 = system: SF-539
Hs-578T = system: Hs-578T
HCT-116 = system: HCT-116
RXF 393 = system: RXF 393
MOLT-4 = system: MOLT-4
SK-MEL-2 = system: SK-MEL-2
SK-OV-3 = system: SK-OV-3
SF-268 = system: SF-268
NCI-H226 = system: NCI-H226
SF-295 = system: SF-295
EKVX = system: EKVX
DU-145 = system: DU-145
HCC 2998 = system: HCC 2998
UACC-62 = system: UACC-62
MDA-MB-231 = system: MDA-MB-231
NCI-H23 = system: NCI-H23
A549 = system: A549
ACHN = system: ACHN
MDA-MB-435 = system: MDA-MB-435
SN12C = system: SN12C
CCRF-CEM = system: CCRF-CEM
NCI-H460 = system: NCI-H460
SNB-75 = system: SNB-75
MDA-N = system: MDA-N
SNB-19 = system: SNB-19
OVCAR-5 = system: OVCAR-5
K562 = system: K562
HOP-92 = system: HOP-92
T47D = system: T47D
Malme-3M = system: Malme-3M
OVCAR-3 = system: OVCAR-3
LOX IMVI = system: LOX IMVI
BT-549 = system: BT-549
HCT-15 = system: HCT-15
SK-MEL-28 = system: SK-MEL-28
IGROV-1 = system: IGROV-1
UO-31 = system: UO-31
786-0 = system: 786-0
PC-3 = system: PC-3
SK-MEL-5 = system: SK-MEL-5
A498 = system: A498
RPMI-8226 = system: RPMI-8226
HT-29 = system: HT-29
HL-60 = system: HL-60
SR = system: SR

CC1(C)CNCC(C)(OCc2ccccc2)C(=O)NC(C)(C)CNCC(C)(OCc2ccccc2)C(=O)N1 (stereo not drawn)
GI50 (KM12): > 10 µM (inactive) | GI50 (M14): > 10 µM (inactive) | GI50 (TK-10): > 10 µM (inactive) | GI50 (SW-620): > 10 µM (inactive) | GI50 (HOP-62): > 10 µM (inactive) | GI50 (MCF7): > 10 µM (inactive) | GI50 (U-251): > 10 µM (inactive) | GI50 (UACC-257): > 10 µM (inactive) | GI50 (OVCAR-8): > 10 µM (inactive) | GI50 (SF-539): > 10 µM (inactive) | GI50 (Hs-578T): 5.09 µM (inactive) | GI50 (HCT-116): 8.99 µM (inactive) | GI50 (RXF 393): 3.78 µM (inactive) | GI50 (MOLT-4): > 10 µM (inactive) | GI50 (SK-MEL-2): > 10 µM (inactive) | GI50 (SK-OV-3): > 10 µM (inactive) | GI50 (SF-268): > 10 µM (inactive) | GI50 (NCI-H226): > 10 µM (inactive) | GI50 (SF-295): > 10 µM (inactive) | GI50 (EKVX): > 10 µM (inactive) | GI50 (DU-145): > 10 µM (inactive) | GI50 (HCC 2998): > 10 µM (inactive) | GI50 (UACC-62): > 10 µM (inactive) | GI50 (MDA-MB-231): > 10 µM (inactive) | GI50 (NCI-H23): > 10 µM (inactive) | GI50 (A549): > 10 µM (inactive) | GI50 (ACHN): > 10 µM (inactive) | GI50 (MDA-MB-435): > 10 µM (inactive) | GI50 (SN12C): > 10 µM (inactive) | GI50 (CCRF-CEM): > 10 µM (inactive) | GI50 (NCI-H460): > 10 µM (inactive) | GI50 (SNB-75): 6.27 µM (inactive) | GI50 (MDA-N): > 10 µM (inactive) | GI50 (SNB-19): > 10 µM (inactive) | GI50 (OVCAR-5): > 10 µM (inactive) | GI50 (K562): > 10 µM (inactive) | GI50 (HOP-92): 385 nM (active) | GI50 (T47D): > 10 µM (inactive) | GI50 (Malme-3M): > 10 µM (inactive) | GI50 (OVCAR-3): > 10 µM (inactive) | GI50 (LOX IMVI): > 10 µM (inactive) | GI50 (BT-549): > 10 µM (inactive) | GI50 (HCT-15): > 10000 nM | GI50 (SK-MEL-28): > 10 µM (inactive) | GI50 (IGROV-1): > 10 µM (inactive) | GI50 (UO-31): 6 µM (inactive) | GI50 (786-0): > 10 µM (inactive) | GI50 (PC-3): > 10 µM (inactive) | GI50 (SK-MEL-5): > 10 µM (inactive) | GI50 (A498): > 10 µM (inactive)

O=C1C(Cl)=C(NCCF)C(=O)c2ncccc21
GI50 (KM12): 1.93 µM (inactive) | GI50 (M14): 1.61 µM (inactive) | GI50 (TK-10): 2.13 µM (inactive) | GI50 (SW-620): 1.36 µM (inactive) | GI50 (RPMI-8226): 7.08 µM (inactive) | GI50 (HOP-62): 2.04 µM (inactive) | GI50 (HT-29): 2.97 µM (inactive) | GI50 (MCF7): 1.72 µM (inactive) | GI50 (U-251): 1.46 µM (inactive) | GI50 (UACC-257): 1.62 µM (inactive) | GI50 (OVCAR-8): 2.03 µM (inactive) | GI50 (SF-539): 1.81 µM (inactive) | GI50 (Hs-578T): 1.83 µM (inactive) | GI50 (HCT-116): 1.76 µM (inactive) | GI50 (RXF 393): 1.84 µM (inactive) | GI50 (MOLT-4): 1.55 µM (inactive) | GI50 (SK-MEL-2): 1.68 µM (inactive) | GI50 (SK-OV-3): 2.29 µM (inactive) | GI50 (SF-268): 2.03 µM (inactive) | GI50 (NCI-H226): 1.92 µM (inactive) | GI50 (SF-295): 1.75 µM (inactive) | GI50 (EKVX): 1.68 µM (inactive) | GI50 (DU-145): 1.6 µM (inactive) | GI50 (HCC 2998): 1.36 µM (inactive) | GI50 (UACC-62): 0.977 µM (active) | GI50 (MDA-MB-231): 1.9 µM (inactive) | GI50 (NCI-H23): 1.6 µM (inactive) | GI50 (A549): 1.89 µM (inactive) | GI50 (ACHN): 2.19 µM (inactive) | GI50 (HL-60): 5.11 µM (inactive) | GI50 (MDA-MB-435): 0.212 µM (active) | GI50 (SN12C): 1.91 µM (inactive) | GI50 (CCRF-CEM): 0.235 µM (active) | GI50 (NCI-H460): 1.65 µM (inactive) | GI50 (SNB-75): 1.29 µM (inactive) | GI50 (MDA-N): 0.2 µM (active) | GI50 (SNB-19): 1.64 µM (inactive) | GI50 (OVCAR-5): 1.88 µM (inactive) | GI50 (K562): 0.321 µM (active) | GI50 (T47D): 2.2 µM (inactive) | GI50 (Malme-3M): 1.57 µM (inactive) | GI50 (OVCAR-3): 2.03 µM (inactive) | GI50 (LOX IMVI): 0.724 µM (active) | GI50 (BT-549): 1.63 µM (inactive) | GI50 (HCT-15): 2080 nM | GI50 (SK-MEL-28): 1.87 µM (inactive) | GI50 (SR): 9.38 µM (inactive) | GI50 (IGROV-1): 1.95 µM (inactive) | GI50 (UO-31): 1.32 µM (inactive) | GI50 (786-0): 1.82 µM (inactive) | GI50 (PC-3): 1.58 µM (inactive) | GI50 (SK-MEL-5): 1 µM (active) | GI50 (A498): 4.12 µM (inactive)
